Laboratory results taken from the supplement of paper PMC10307832.

Experiments:
Assay in all cases: relative viability (nuclei count vs DMSO), 5 days (fraction); higher = more cells survive
Salubrinal + Palbociclib = compound: O=C(/C=C/c1ccccc1)NC(NC(=S)Nc1cccc2cccnc12)C(Cl)(Cl)Cl [Salubrinal] + CC(=O)c1c(C)c2cnc(Nc3ccc(N4CCNCC4)cn3)nc2n(C2CCCC2)c1=O [Palbociclib] (partner 0.5 µM)
Method in brief: (§1)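 Lung cancer cell lines, seeded in 1536-well plates, were treated the following day by pin tool with a single drug or with five library-drug doses (not always all listed) in √10 steps on top of a fixed anchor-drug dose. Cells were fixed and nuclei stained in one step after 5 days, and nuclei were counted. Relative viability is the nuclei count for treated wells divided by that for vehicle wells, reported as medians of duplicate plates.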

Salubrinal + Linsitinib = compound: O=C(/C=C/c1ccccc1)NC(NC(=S)Nc1cccc2cccnc12)C(Cl)(Cl)Cl [Salubrinal] + C[C@]1(O)C[C@@H](c2nc(-c3ccc4ccc(-c5ccccc5)nc4c3)c3c(N)nccn32)C1 [Linsitinib] (partner 1 µM)
Method in brief: as §1

Salubrinal + Navitoclax = compound: O=C(/C=C/c1ccccc1)NC(NC(=S)Nc1cccc2cccnc12)C(Cl)(Cl)Cl [Salubrinal] + CC1(C)CCC(c2ccc(Cl)cc2)=C(CN2CCN(c3ccc(C(=O)NS(=O)(=O)c4ccc(N[C@H](CCN5CCOCC5)CSc5ccccc5)c(S(=O)(=O)C(F)(F)F)c4)cc3)CC2)C1 [Navitoclax] (partner 0.5 µM)
Method in brief: as §1

[1] = compound: Cc1ccc2nc(NCCN)c3ncc(C)n3c2c1 + Cc1cc(Nc2cc(N3CCN(C)CC3)nc(Sc3ccc(NC(=O)C4CC4)cc3)n2)n[nH]1 [Tozasertib] (partner 0.1 µM)
Method in brief: as §1

| Cell Line | relative viability (Salubrinal + Palbociclib; first compound 0.08 µM) | relative viability (Salubrinal + Palbociclib; first compound 0.253 µM) | relative viability (Salubrinal + Palbociclib; first compound 0.8 µM) | relative viability (Salubrinal + Palbociclib; first compound 2.53 µM) | relative viability (Salubrinal + Palbociclib; first compound 8 µM) | relative viability (Salubrinal + Linsitinib; first compound 0.08 µM) | relative viability (Salubrinal + Linsitinib; first compound 0.253 µM) | relative viability (Salubrinal + Linsitinib; first compound 0.8 µM) | relative viability (Salubrinal + Linsitinib; first compound 2.53 µM) | relative viability (Salubrinal + Linsitinib; first compound 8 µM) | relative viability (Salubrinal + Navitoclax; first compound 0.08 µM) | relative viability (Salubrinal + Navitoclax; first compound 0.253 µM) | relative viability (Salubrinal + Navitoclax; first compound 0.8 µM) | relative viability (Salubrinal + Navitoclax; first compound 2.53 µM) | relative viability (Salubrinal + Navitoclax; first compound 8 µM) | relative viability ([1]; first compound 0.04 µM) | relative viability ([1]; first compound 0.1265 µM) | relative viability ([1]; first compound 0.4 µM) | relative viability ([1]; first compound 1.265 µM) | relative viability ([1]; first compound 4 µM) |
| --- | --- | --- | --- | --- | --- | --- | --- | --- | --- | --- | --- | --- | --- | --- | --- | --- | --- | --- | --- | --- |
| NCI-H1975 | 0.473 | 0.424 | 0.675 | 0.717 | 0.567 | 1.1 | 0.735 | 1.17 | 0.988 | 0.946 | 1.27 | 0.796 | 1.21 | 1.15 | 1.1 | 0.818 | 0.866 | 0.824 | 0.639 | 0.56 |
| CAL-12T | 0.459 | 0.42 | 0.676 | 0.436 | 0.328 | 0.754 | 0.883 | 0.971 | 0.806 | 0.726 | 1.29 | 0.952 | 1.21 | 1.09 | 1.06 | 0.288 | 0.353 | 0.376 | 0.291 | 0.269 |
| NCI-H2342 | 0.465 | 0.516 | 0.552 | 0.49 | 0.531 |  |  |  |  |  |  |  |  |  |  | 0.481 | 0.583 | 0.47 | 0.599 | 0.463 |
| HCC-44 | 1.03 | 0.941 | 0.971 | 0.998 | 1 | 0.761 | 0.754 | 0.731 | 0.703 | 0.65 | 1.06 | 0.899 | 0.999 | 0.97 | 0.802 | 1.06 | 0.896 | 1.04 | 0.753 | 0.645 |
| EKVX | 0.408 | 0.457 | 0.791 | 0.412 | 0.37 | 1.4 | 0.744 | 1.15 | 1.01 | 0.856 | 0.958 | 0.983 | 0.911 | 1.08 | 1.06 | 0.433 | 0.359 | 0.366 | 0.349 | 0.407 |
| NCI-H1651 | 0.561 | 0.479 | 0.564 | 0.513 | 0.508 | 1.09 | 0.692 | 1.06 |  | 0.968 | 1.1 | 1.01 | 1.21 |  | 0.979 | 0.625 | 0.71 | 0.652 | 0.677 | 0.718 |
| NCI-H1648 | 0.255 | 0.258 | 0.252 | 0.22 | 0.236 |  |  |  |  |  |  |  |  |  |  | 0.498 |  | 0.546 |  | 0.3 |
| NCI-H1703 |  |  |  |  |  | 0.515 | 0.997 | 0.712 | 0.685 | 0.644 | 1.39 | 1.12 | 0.971 | 0.901 | 0.964 |  |  |  |  |  |
| Calu-6 |  |  |  |  |  | 0.983 | 0.842 | 1.08 | 0.928 | 0.992 | 0.903 | 0.749 | 0.888 | 0.877 | 0.809 |  |  |  |  |  |
| EBC-1 |  |  |  |  |  | 0.767 | 0.844 | 1.03 | 0.873 | 0.897 | 0.349 | 0.332 | 0.435 | 0.399 | 0.287 |  |  |  |  |  |
| SW 1573 | 0.445 | 0.355 | 0.378 | 0.374 | 0.3 | 0.903 | 0.759 | 0.718 | 0.792 | 0.844 | 1.02 | 1 | 0.937 | 0.929 | 1.01 | 0.187 | 0.177 | 0.19 | 0.214 | 0.157 |
| A-427 | 0.57 | 0.527 | 0.562 | 0.502 | 0.538 | 1.12 | 1.2 | 1.1 | 1.08 | 1.22 | 0.942 | 1.01 | 1.08 | 0.886 | 0.926 | 0.229 | 0.21 | 0.185 | 0.212 | 0.196 |
| NCI-H2347 | 0.452 | 0.462 | 0.415 | 0.388 | 0.387 | 1.06 | 1 | 1.06 | 1.15 | 0.963 | 0.928 | 0.86 | 0.75 | 0.728 | 0.864 | 0.801 | 0.58 | 0.509 | 0.519 | 0.437 |
| NCI-H1355 | 0.423 | 0.472 | 0.412 | 0.402 | 0.364 | 0.976 | 0.797 | 0.856 | 0.89 | 0.751 | 1.02 | 1.07 | 1.07 | 0.949 | 0.87 | 0.565 | 0.517 | 0.611 | 0.546 | 0.553 |
| NCI-H1944 | 0.394 | 0.372 | 0.315 | 0.299 | 0.337 | 1.28 | 1.23 | 1.34 | 1.17 | 1.15 | 1.07 | 1.08 | 1.12 | 1.04 | 1.05 | 0.256 | 0.248 | 0.246 | 0.241 | 0.253 |
| PC-3 [JPC-3] | 0.514 | 0.579 | 0.539 | 0.28 | 0.629 | 0.927 | 0.999 | 0.982 | 0.928 | 0.937 | 0.859 | 0.768 | 0.846 | 0.766 | 0.766 | 0.899 | 0.821 | 0.914 | 0.848 | 0.833 |
| NCI-H2228 | 0.613 |  | 1.04 | 0.752 | 0.567 | 0.768 | 0.813 | 0.791 | 0.581 | 0.629 | 1.43 | 0.661 | 0.888 | 1.07 | 0.767 | 0.297 | 0.266 | 0.279 | 0.224 | 0.219 |
| HOP-62 | 0.359 | 0.399 | 0.53 | 0.457 | 0.481 | 1.07 | 0.918 | 1.1 | 0.977 | 0.998 | 1.04 | 0.822 | 1.09 | 1.01 | 0.958 | 0.383 | 0.379 | 0.396 | 0.367 | 0.402 |
| HARA | 0.294 | 0.281 | 0.252 | 0.269 | 0.236 | 1.09 | 0.905 | 0.936 | 0.898 | 0.99 | 1.05 | 1.18 | 1.13 | 1.16 | 1.11 | 0.77 | 0.156 | 0.126 | 0.107 | 0.11 |
